The values below come from patent publication US5614533A, “Substituted pipecolinic acid derivatives as HIV protease inhibitors” (Bio-Mega/Boehringer Ingelheim Research, Inc., priority 1994, dated 1997).

One assay has as its target T1, HIV protease (Human immunodeficiency virus type 1 group M subtype B, UniProt P04585).
T1 construct: HIV protease was expressed in E. coli; made in house; host or cells: E. coli (plasmid pBRT1 prt+)
Description: Recombinant HIV Protease HPLC Assay. The assay is classed as biochemical. To be noted: Table IV; 37°, 30 min, pH 5.5. The text has this: The procedure is based on the capacity of the test compound to inhibit enzymatic cleavage by HIV protease of a decapeptide (the substrate) having an amino acid sequence which includes a known HIV protease cleavage site of a HIV polyprotein; see H. G. Krausslich et al., Proc. Natl. Acad. Sci. USA, 86, 807 (1989). Details of this assay together with the results obtained for exemplified compounds of formula 1 are described in the examples hereinafter.
Recombinant HIV Protease HPLC Assay:
Enzyme: HIV protease was expressed in E. coli {construct pBRT1 prt^+, see W. G. Farmerie et al., Science, 236, 305 (1987)}, according to the following protocol:
E. coli cells containing the pBRT1 prt^+ plasmid were used to inoculate a seed culture media composed of Luria-Bertani Broth containing 100 μg/mL of ampicillin. Flasks were incubated at 37° under agitation for 17 h. Production flasks containing sterile M9 broth, supplemented with 100 μg/mL of ampicillin, were inoculated at a level of 1% (v/v) using the seed culture described above. Total volume in each production flask was 500 mL in a 2 L Erlenmeyer flask. Flasks were incubated at 37° under agitation until a cell concentration corresponding to an optical density ([…]) of 0.6 was reached (no dilution). This time span was routinely 3-4 h. Flasks were then supplemented with 5 mM isopropylthiogalactoside (IPTG, Research Organics, Cleveland, Ohio, USA) and incubation was continued until the cell concentration reached an optical density of 0.2 at 16-fold dilution. Flasks were then supplemented with 1 mM phenylmethylsulfonyl fluoride (PMSF) and rapidly chilled to 4°. The bacterial cells were recovered by centrifugation at 4°. The wet pellet was stored at -70°.
All steps below were performed at 4° unless otherwise indicated. Thawed cells were mixed with buffer A {50 mM tris(hydroxymethyl)[…] HCl (Tris-HCl, pH 7.4); 0.6 mM ethylenediaminetetraacetic acid (EDTA); 0.375M NaCl, 0.2% Nonidet P-40® (BDH Chemicals Ltd., Poole, UK); 1 mM PMSF}, at a ratio of one part cells to nine parts buffer A. Diatomaceous earth (Celite 545®, John Manville, Lompoc, Calif. USA) was added at a ratio of two parts to one part of wet cell weight. The resulting slurry was homogenized at high speed (ca. 20,000 rpm) on a Waring® industrial blender for 8×15 sec. pulses. Cell debris/Celite® was collected by centrifugation and the resulting pellet was extracted with 4.5 parts of buffer A to one part wet solids using the homogenization procedure described above. Supernatants from both homogenization steps were combined and soluble protein was precipitated by the addition of solid (NH4)2 SO4 to yield a final concentration of 75% saturation. This mixture was agitated for 60 min and the precipitate was recovered by centrifugation. The resulting pellet was suspended in buffer B {50 mM Tris-HCl, pH 8; 30 mM NaCl; 1 mM DL-dithiothreitol (DTT); 1 mM EDTA; 1 mM PMSF; 10% glycerol}, and dialyzed for 18 h against the same buffer.
An aliquot of the dialyzed extract containing 150 mg of the protein was loaded onto a Sephadex A25® anion exchange column (Pharmacia, Uppsala, Sweden) with bed dimensions of 70 cm length and 2.5 cm diameter. The sample was eluted isocratically with buffer B at a linear flow rate of 10 cm/h. Fractions containing HIV protease activity (see below for assay description) were combined, and soluble protein was precipitated by the addition of saturated aqueous (NH4)2 SO4 to yield a total (NH4)2 SO4 concentration of 85% saturation. Precipitated protein was removed by centrifugation and the resulting pellet was dissolved in buffer C {50 mM 2-(4-morpholino)ethanesulfonic acid (MES), pH 5.5; 150 mM NaCl; 1 mM DTT; 1 mM EDTA; 10% glycerol}. This preparation was dialyzed for 18 h against buffer C, and then frozen at -70°. All crude extracts were purified by chromatography in aliquots containing 150 mg of protein in the same manner as described above. […]

The subject of assay [1] is HIV (H9/HTLV-IIIB) in C8166 cells. Description: plaque assay: inhibition of syncytia formation in HIV-infected C8166 cells. To be noted: Human immunodeficiency virus 1, IIIB, Table IV, 72 h, 50% inhibition of syncytia formation. It is filed as cell-based. The text has this:
Typical of such procedures are those described by S. Harada and N. Yamamoto, Jpn. J. Cancer Res. (Gann), 76, 432 (1985), and S. Harada et al., Science, 229, 563 (1985). An assay based on the latter procedures is described in the examples hereinafter.
The following protocol, used for screening antiviral effects of the compounds of formula 1, is adapted from a plaque assay utilizing HTLV-I transformed cells, previously reported by Harada et al., supra. HTLV-I transformed cells are used because of the rapidity with which HIV will replicate in the cells.
1. The test compound is dissolved in dimethylsulfoxide to a concentration of 5 mg/mL. The resultant solution can be stored at 4° until use.
2. The resultant solution is diluted in RPMI 1640 (Gibco Laboratories, St. Lawrence, Mass., USA) to four times (4×) the final concentration which is to be tested. Once diluted in RPMI 1640, the solution is used in the cell culture assay within 4 h.
3. The 4× solution (50 μL) is added to triplicate wells of a 96 well flat bottomed microtiter plate. RPMI (50 μL) also is added to control wells.
4. C8166 cells (5×10^4) in 50 μL of HEPES-buffered RPMI 1640 (pH=7.2), 10% heat inactivated fetal calf serum (FCS), […] gentamicin (complete media) are added to all wells.
5. Fifty times TCID50 of H9/HTLV-IIIB stock (stored in liquid nitrogen as cell culture supernatant in 50% FCS) in 100 μL of complete media is added to all wells. Infectious titer of virus stocks are as previously determined by end point dilution on C8166 cells. Titer of stocks are stable for 6-12 months when stored at -193°.
6. Microtiter plates are then placed on level shelves of a 37°, 5% CO2 humidified incubator for 72 h.
7. Plates are then removed and centers of syncytia are counted in each well by low power phase contrast light microscopy. […] Control wells should have between 25 and 75 centers of syncytia per well.
8. Percent inhibition of syncytia formation is calculated by the formula: [formula]
The concentration of the test compound which causes a 50% inhibition of syncytia formation, i.e. the EC50, is determined by using the technique of serial dilution of the working solution at step 3 and by using non-linear regression analysis (SAS® program) to graphically plot the observed percent inhibition of syncytia formation against the various concentrations of the test compound.

`CC[C@H](C)[C@H](NC(=O)OCc1ccccc1)C(=O)N[C@@H](Cc1ccccc1)[C@H](O)CN1CC[C@@H](c2ccccc2)C[C@H]1C(=O)NC(C)(C)C` [Table IV, entry 11, N-tert-butyl-1-{3(S)-{{N-(benzyloxycarbonyl)isoleucyl}amino}-2(R)-hydroxy-4-phenylbutyl}-4(R)-phenylpiperidine-2(S)-carboxamide]: the IC50 – broadly, the midpoint of a concentration-inhibition curve – at HIV protease was determined as 3.7 nM. Further, in assay [1], the EC50 (as a rule, the midpoint of the concentration-response curve) is 700 nM.
On to `CC(C)(C)NC(=O)[C@@H]1C[C@H](c2ccccc2)CCN1C[C@@H](O)[C@H](Cc1ccccc1)NC(=O)[C@H](CC(N)=O)NC(=O)OCc1ccccc1` [Table IV, entry 12], for which the IC50 on HIV protease stood at 6.3 nM. Moreover, the EC50 in assay [1] was 150 nM.
Take `CC(C)[C@H](NC(=O)OCc1ccccc1)C(=O)N[C@@H](Cc1ccccc1)[C@H](O)CN1CC[C@@H](Cc2ccccc2)C[C@H]1C(=O)NC(C)(C)C` [Table IV, entry 13]: the concentration for half-maximal inhibition (IC50) on HIV protease was 4.1 nM. In assay [1], this compound returned an EC50 of 40 nM.
The corresponding values for `CC(C)[C@H](NC(=O)OCc1ccccc1)C(=O)N[C@@H](Cc1ccccc1)[C@H](O)CN1CC[C@@H](S(=O)(=O)c2ccccc2)C[C@H]1C(=O)NC(C)(C)C` [Table IV, entry 14] are 2.3 nM and 40 nM.
The matching figures for `CC(C)(C)NC(=O)[C@@H]1C[C@H](S(=O)(=O)c2ccccc2)CCN1C[C@@H](O)[C@H](Cc1ccccc1)NC(=O)[C@H](CC(N)=O)NC(=O)OCc1ccccc1` [Table IV, entry 15]: 2.9 nM and 1270 nM.
As to `CC(C)[C@H](NC(=O)OCc1ccccc1)C(=O)N[C@@H](Cc1ccccc1)[C@H](O)CN1CC[C@@H](Oc2ccccc2)C[C@H]1C(=O)NC(C)(C)C` [Table IV, entry 16], the IC50 on HIV protease worked out at 2.7 nM. This compound showed an EC50 in assay [1] of 150 nM.
Consider `CC(C)(C)NC(=O)[C@@H]1C[C@H](Oc2ccccc2)CCN1C[C@@H](O)[C@H](Cc1ccccc1)NC(=O)[C@H](CC(N)=O)NC(=O)OCc1ccccc1` [Table IV, entry 17], for which the IC50 on HIV protease is 2.5 nM. For the same compound, in assay [1], it took 42 nM to reach a half-maximal effect (EC50).
Regarding `CC(C)[C@H](NC(=O)OCc1ccccc1)C(=O)N[C@@H](Cc1ccccc1)[C@H](O)CN1CC[C@@H](Oc2ccccn2)C[C@H]1C(=O)NC(C)(C)C` [Table IV, entry 18], the IC50 on HIV protease amounted to 1.8 nM. In assay [1], this compound returned an EC50 of 56 nM.
For the compound `CC(C)[C@H](NC(=O)OCc1ccccc1)C(=O)N[C@@H](Cc1ccccc1)[C@H](O)CN1CC[C@@H](C2CCCCC2)C[C@H]1C(=O)NC(C)(C)C` [Table IV, entry 19], the IC50 at HIV protease came to 8 nM. This compound also came in with an EC50 in assay [1] of 200 nM.
Turning to `CC(C)[C@H](NC(=O)c1ccc2ccccc2n1)C(=O)N[C@@H](Cc1ccccc1)[C@H](O)CN1CC[C@@H](Sc2ccccc2)C[C@H]1C(=O)NC(C)(C)C` [Table IV, entry 20, N-tert-butyl-1-{2(R)-hydroxy-4-phenyl-3(S)-{(N-(2-quinolinylcarbonyl)valyl}amino}butyl}-4(R)-(phenylthio)piperidine-2(S)-carboxamide], at HIV protease, the IC50 was found to be 3.1 nM. This compound showed an EC50 in assay [1] of 12 nM.
As to `CC(C)(C)NC(=O)[C@@H]1C[C@H](Oc2ccccc2)CCN1C[C@@H](O)[C@H](Cc1ccccc1)NC(=O)[C@H](CC(N)=O)NC(=O)c1ccc2ccccc2n1` [Table IV, entry 21, N-tert-butyl-1-{2(R)-hydroxy-4-phenyl-3(S)-{{N-(2-quinolinylcarbonyl)asparaginyl}amino}butyl}-4(R)-phenoxypiperidine-2(S)-carboxamide], the IC50 on HIV protease came to 5.4 nM. The same compound returned an EC50 in assay [1] of 15 nM.
Consider `CC(C)(C)NC(=O)[C@@H]1C[C@H](S(=O)(=O)c2ccccc2)CCN1C[C@@H](O)[C@H](Cc1ccccc1)NC(=O)[C@H](CC(N)=O)NC(=O)c1ccc2ccccc2n1` [Table IV, entry 22, N-tert-butyl-1-{2(R)-hydroxy-4-phenyl-3(S)-{{N-(2-quinolinylcarbonyl)asparaginyl}amino}butyl}-4(R)-(phenylsulfonyl)piperidine-2(S)-carboxamide], for which the IC50 at HIV protease stood at 4.7 nM. The compound further returned an EC50 in assay [1] of 450 nM.
Regarding `CC(C)(C)NC(=O)[C@@H]1C[C@H](Sc2ccccc2)CCN1C[C@@H](O)[C@H](Cc1ccccc1)NC(=O)[C@H](CC(N)=O)NC(=O)c1ccc2ccccc2n1` [Table IV, entry 23, N-tert-butyl-1-{2(R)-hydroxy-4-phenyl-3(S)-{{N-(2-quinolinylcarbonyl)asparaginyl}amino}butyl}-4(R)-(phenylthio)piperidine-2(S)-carboxamide], the IC50 at HIV protease was found to be 1.8 nM. It took 10 nM to reach a half-maximal effect in assay [1] (EC50).
As to `CC(C)[C@H](NC(=O)c1ccc2ccccc2c1)C(=O)N[C@@H](Cc1ccccc1)[C@H](O)CN1CC[C@@H](Sc2ccccc2)C[C@H]1C(=O)NC(C)(C)C` [Table IV, entry 24, N-tert-butyl-1-{2(R)-hydroxy-4-phenyl-3(S)-{{N-(2-naphthalenylcarbonyl)valyl}amino}butyl}-4(R)-(phenylthio)piperidine-2(S)-carboxamide], the IC50 at HIV protease came out at 2.3 nM. This compound also had an EC50 in assay [1] of 16 nM.
In the case of `CC(C)(C)NC(=O)[C@@H]1C[C@H](Sc2ccccc2)CCN1C[C@@H](O)[C@H](Cc1ccccc1)NC(=O)[C@H](CC(N)=O)NC(=O)c1ccc2ccccc2c1` [Table IV, entry 25, N-tert-butyl-1-{2(R)-hydroxy-3(S)-{{N-(2-naphthalenylcarbonyl)asparaginyl}amino}-4-phenylbutyl}-4(R)-(phenylthio)piperidine-2(S)-carboxamide], the IC50 at HIV protease worked out at 1.9 nM. For the same compound, a half-maximal effect in assay [1] (EC50) was put at 33 nM.
